Where “and” joins values, the source holds several entries; their conditions need not be identical. Identical values can stand only once. Like-named read-outs stand apart in the source and are kept apart here. Marks after values point to notes of the source that are not given here.
What was measured:
[1] = tested on: human hepatoma cell HepG2
Experimental: (§1) The human hepatoma cells HepG2, human lung cancer cells A549 and NIH3T3 cells were recovered, and subcultured in culture flasks. Once the cells grew to the logarithmic phase, the experiment can be started. The cells were digested by high-pressure filtered trypsin to prepare a cell-containing suspension, dyed for 3 minutes with 0.4% trypan blue, and then counted with the blood-cell counter (living cells were not colored, while dead cells were stained blue).
(§2) The three types of cells in logarithmic phase were seeded in 96-well plates with a density of 1×10^4/ml (200 μL/well), and then cultivated for 24 hours at 37° C. in 5% CO2 cultivable box. The culture media was aspirated and discarded. […] After cultivating for 24 hours and 48 hours, 100 ul supernatant was carefully aspirated and discarded, respectively. MTS (20 μl/well) was added and mixed evenly. The mixture was cultivated for 1 hour at 37° C. in 5% CO2 cultivable box. The absorbency at 492 nm was determined by quantitative Enzyme-linked immunosorbent assay (ELISA). The experiment was repeated for three times. The growth inhibition rate was calculated as follows. Growth Inhibition rate(%)=[(mean OD value of control group−mean OD value of treatment group)/mean OD value of control group]×100%

[2] = tested on: human immortalized fibroblast cell NIH3T3
Experimental: as §1, §2

[3] = tested on: human lung cancer cell A549
Experimental: as §1, §2

CAM vessels = test: CAM assay, effect on tumor angiogenesis; assay type: in vivo, German Roman embryonated eggs; conditions: 72 hours incubation
Experimental: A sterile gelatin sponge, previously made into disks with diameter of 5 mm by a hole puncher, was used as sample carrier. […] There were 3 dose groups, wherein 5 μl (low dose group, with a dose volume of 2 μg/embryo), 10 μl (middle dose group, with a dose volume of 4 μg/embryo), and 20 μl (high dose group, with a dose volume of 8 μg/embryo) of the solution were added respectively into gelatin sponge slices by a quantitative liquid transfer. The sponge slices were dried in the sterile environment.
A sterilized egg was placed into a 37° C. incubator with its air chamber upward. In the 7th day, the embryo was positioned on a super-clean bench and sterilized by ethanol, and then it was drilled by a dental drill to form a little hole in the top of the embryo. Egg shell and shell membrane around the hole were carefully removed to form an opening of about 1.2 cm×1.2 cm; after determining a sample-adding site, the air chamber membrane was carefully pricked at the separation place between the chamber and the yolk by a syringe needle; through the prick hole 1-2 drops of sterilized water was injected, which made the chamber membrane and the CAM membrane be separated; after gently removing the upper layer of the chamber membrane with forceps, the CAM membrane in the lower layer was exposed.
A drug-containing carrier was placed, at the junction area of the CAM membrane and the yolk sac membrane, on a site where vessels were less, and then sealed with sterilized transparent adhesive tape to continue to incubate for 72 hours.
After the incubation, the transparent adhesive tape stopped on the top of the air chamber was gently removed by forceps; a mixture of methanol/acetone (1:1, 1-2 ml) was gently added; the room temperature was remained constant for 10 minutes. Then, the CAM membrane was carefully peeled off and placed on a glass slide for observing and taking photos. The effect of the compound on angiogenesis was assessed by counting the numbers of large, middle, small blood vessels radiated by the carrier.

mouse sarcoma cells S180 = tested on: mouse sarcoma cells S180
Experimental: Ascites mice S180 and H22 that had been vaccinated 7 days were sacrificed by cervical, from which ascites were obtained under sterile conditions respectively; the obtained ascites were washed twice with culture medium RPMI1640, and prepared to a 2×10^7/ml suspension in sterile physiological saline. The suspension of cell S180 was inoculated subcutaneously in the right axillas of 40 mice (0.1 ml/mouse) to produce solid tumor models; while the suspension of cell H22 was inoculated in abdominal cavities of 40 mice (0.2 ml/mouse) by conditional means under sterile conditions to produce ascites tumor models.
90 mice were randomly divided into 9 groups of 3 types, wherein the first type group was a normal control group, the second type groups were S180 solid tumor groups including a positive (cyclophosphamide) control group, a negative control group, a low dose group and a high dose group, and the third type groups were H22 ascites groups including a positive (cyclophosphamide) control group, a negative control group, a low dose group and a high dose group. There were 10 mice in each group. The experiment was repeated for three times.
[…], the negative control group was injected same volume of corn oil, and the positive control group was injected cyclophosphamide injection solution with the dose of 0.02 g/(Kg.d). The used injection volume was 0.1 ml/mouse and the injection was given as intraperitoneal injection every other day for 15 days. During the 15 days, general activities, fur, feces, etc. of the mice were daily observed. 24 hours after the last administration, mice that had been inoculated subcutaneously with S180 were sacrificed by cervical, from which tumors, thymus and spleen were taken out. After the last administration, mice that had been inoculated in abdominal cavities with H22 were conventionally bred continually, weighted and observed the survival time every day until all the mice in the negative group were dead.
After finishing the administration in all mice in the solid tumor group, the mice were sacrificed and their spleens and livers were weighed by electronic balance. The spleen index was equivalent to the spleen weight (mg) of mice in each group divided by the weight of the mice, while the liver index was equivalent to the liver weight […] divided by the weight (g) of the mice.
On the next day after drug withdrawal, the mice in the solid-tumor […] group were weighed and sacrificed by cervical, wherein the serum was collected by eye bleeding for later use in subsequent experiments. Tumor tissues were dissected and weighed by electronic balance. The tumor inhibition rate was calculated as follows. Tumor Inhibition Rate(%)=[(mean tumor weight of negative control group−mean tumor weight of treatment group)/mean tumor weight of control group]×100%

VEGF = conditions: 16 mg/kg (low dose group), OD at 450 nm
Experimental: Before taking tumors out, blood was collected by eye bleeding from mice in the four groups, i.e. the negative control group, the positive CTX control group, the high dose (32 mg/kg) group and the low dose (16 mg/kg) group.
1.1 Preparing reagents, samples and standards;
1.2 Adding the prepared samples and standards, and reacting for 90 minutes at 37° C.;
1.3 Washing the plate twice, adding biotinylated antibody working solution, and reacting for 60 minutes at 37° C.;
1.4 Washing the plate for three times, adding ABC working solution, and reacting for 30 minutes at 37° C.;
1.5 Washing the plate for five times, adding TMB color liquid, and reacting in dark for 15 minutes at 37° C.;
1.6 Adding TMB stop solution, and measuring OD value at 450 nm.

[4] = S180 sarcoma mice, low dose 16 mg/kg i.p. every other day for 15 days

SMILES: CC(C)CCC[C@@H](C)[C@H]1CC[C@@H]2[C@]1(C)CC[C@H]1[C@]23C=C[C@]2(CC(=O)CC[C@]12C)OO3 [CL168-6, 5α,8α-cyclicobioxygen-6-cholesten-3-one]
- 24 h Inhibition rate (%) HepG2 ([1]; 2.5 μg/ml): 52.85%
- 48 h Inhibition rate (%) HepG2 ([1]; 2.5 μg/ml): 59.83%
- 24 h Inhibition rate (%) HepG2 ([1]; 5.0 μg/ml): 58.51* %
- 48 h Inhibition rate (%) HepG2 ([1]; 5.0 μg/ml): 69.08* %
- 24 h Inhibition rate (%) HepG2 ([1]; 10.0 μg/ml): 64.39%
- 48 h Inhibition rate (%) HepG2 ([1]; 10.0 μg/ml): 73.67%
- 24 h Inhibition rate (%) NIH3T3 ([2]; 2.5 μg/ml): 3.87%
- 48 h Inhibition rate (%) NIH3T3 ([2]; 2.5 μg/ml): 0.75%
- 24 h Inhibition rate (%) NIH3T3 ([2]; 5.0 μg/ml): 5.69%
- 48 h Inhibition rate (%) NIH3T3 ([2]; 5.0 μg/ml): 1.97%
- 24 h Inhibition rate (%) NIH3T3 ([2]; 10.0 μg/ml): 8.45%
- 48 h Inhibition rate (%) NIH3T3 ([2]; 10.0 μg/ml): 5.37%
- 24 h Inhibition rate (%) A549 ([3]; 2.5 μg/ml): 48.69%
- 48 h Inhibition rate (%) A549 ([3]; 2.5 μg/ml): 51.91%
- 24 h Inhibition rate (%) A549 ([3]; 5.0 μg/ml): 55.78* %
- 48 h Inhibition rate (%) A549 ([3]; 5.0 μg/ml): 59.75* %
- 24 h Inhibition rate (%) A549 ([3]; 10.0 μg/ml): 62.40%
- 48 h Inhibition rate (%) A549 ([3]; 10.0 μg/ml): 69.67% and 69.37* %
- Large vessels (number of the vessels) (CAM vessels; 2 ug/embryo): 3.5 ± 1.8
- Middle vessels (number of the vessels) (CAM vessels; 2 ug/embryo): 13.2 ± 3.7
- Small vessels (number of the vessels) (CAM vessels; 2 ug/embryo): 8.8 ± 2.3
- Large vessels (number of the vessels) (CAM vessels; 4 ug/embryo): 3.6 ± 1.9
- Middle vessels (number of the vessels) (CAM vessels; 4 ug/embryo): 11.2 ± 3.2
- Small vessels (number of the vessels) (CAM vessels; 4 ug/embryo): 6.5 ± 2.5
- Large vessels (number of the vessels) (CAM vessels; 8 ug/embryo): 2.5 ± 2.0
- Middle vessels (number of the vessels) (CAM vessels; 8 ug/embryo): 12.6 ± 5.6
- Small vessels (number of the vessels) (CAM vessels; 8 ug/embryo): 4.0 ± 2.8
- Tumor weight (g) (mouse sarcoma cells S180; S180 sarcoma mice, high dose 32 mg/kg i.p. every other day for 15 days): 0.629 ± 0.133^(3) g
- Tumor inhibition rate (%) (mouse sarcoma cells S180; S180 sarcoma mice, high dose 32 mg/kg i.p. every other day for 15 days, 32 mg/kg): 54.58%
- Tumor weight (g) (mouse sarcoma cells S180; [4]): 0.771 ± 0.407^ g
- Weight increase (mouse sarcoma cells S180; [4]): 6.71 ± 1.22 g
- Tumor inhibition rate (%) (mouse sarcoma cells S180; S180 sarcoma mice, low dose 16 mg/kg i.p. every other day for 15 days, 16 mg/kg): 44.33%
- Liver index (100 g/g) (mouse sarcoma cells S180; mouse, in vivo, ip, 16 mg/kg): 4.45 ± 0.19 100 g/g
- Spleen index (mg/g) (mouse sarcoma cells S180; mouse, in vivo, ip, 16 mg/kg): 5.32 ± 0.68^(2)(4) mg/g
- Liver index (100 g/g) (mouse sarcoma cells S180; mouse, in vivo, ip, 32 mg/kg): 4.38 ± 0.13 100 g/g
- Spleen index (mg/g) (mouse sarcoma cells S180; mouse, in vivo, ip, 32 mg/kg): 5.34 ± 0.73^(2)(4) mg/g
- Weight increase (mouse sarcoma cells S180; mouse, in vivo, ip, 32 mg/kg): 6.00 ± 1.11 g
- OD value of serum VEGF (VEGF): 0.2064 ± 0.0114^□

Reference: patent publication US8853194B2, “Sterol derivatives and their synthesis and use” (priority 2009, dated 2014)
